ChEMBL document CHEMBL5550185, “Targeting hTERT Promoter G-Quadruplex DNA Structures with Small-Molecule Ligand to Downregulate hTERT Expression for Triple-Negative Breast Cancer Therapy” (J Med Chem, 2024)
Active and inactive are the calls of the source. The calls are words filed in the database; no cut-off is given here.

How the values were obtained:
[1] = Upregulation of FTH1 gene expression in human MDA-MB-231 cells assessed as fold change at 1 uM measured after 48 hrs by RNA-seq analysis relative to control; format: functional
MDA-MB-231 [2] = experiment: Antitumor activity against human MDA-MB-231 cells xenografted in female Balb/c mouse assessed as reduction in tumor volume at 5 mg/kg, iv administered via tail vein every 2 days for 16 days relative to control; format: functional; set-up: scale not given: the % may be the effect or the level left; conditions: time 16 day
[3] = Selectivity ratio of binding affinity to human TERT G4 DNA to binding affinity to Pu27 G4 DNA (unknown origin)
MDA-MB-231 [4] = experiment: Downregulation of p62 protein expression in human MDA-MB-231 cells at 0 to 1.5 uM measured after 48 hrs by Western blot analysis; format: functional, cell-based; conditions: dose 0-1.5 µM
[5] = Upregulation of PLK1 gene expression in human MDA-MB-231 cells assessed as fold change at 1 uM measured after 48 hrs by RNA-seq analysis relative to control; format: functional
[6] = Upregulation of SAT1 gene expression in human MDA-MB-231 cells assessed as fold change at 1 uM measured after 48 hrs by RNA-seq analysis relative to control; format: functional
DNA [7] = experiment: Binding affinity to Dt21 ssDNA (unknown origin) assessed as thermal stability by measuring change in melting temperature at 400 uM […]; format: nucleic-acid assay
MDA-MB-231 [8] = experiment: Induction of DNA damage in human MDA-MB-231 cells assessed as upregulation of gamma-H2AX protein expression measured after 48 hrs by Western blot analysis; format: functional, cell-based; conditions: dose 0-1.5 µM
[9] = Upregulation of MAP1LC3B gene expression in human MDA-MB-231 cells assessed as fold change at 1 uM measured after 48 hrs by RNA-seq analysis relative to control; format: functional
[10] = Upregulation of FTL gene expression in human MDA-MB-231 cells assessed as fold change at 1 uM measured after 48 hrs by RNA-seq analysis relative to control; format: functional
MDA-MB-231 [11] = experiment: Inhibition of hTERT protein expression in human MDA-MB-231 cells measured after 48 hrs by Western blot analysis; format: functional, cell-based; conditions: dose 0-1.5 µM
[12] = Toxicity in female Balb/c nude mouse xenografted with human MDA-MB-231 cells assessed as change in AST level at 2 to 5 mg/kg, iv administered via tail vein every 2 days for 16 days; format: organism-based; conditions: in vivo, 384 h, dose 2-5 mg/kg, time 16 day
[13] = Toxicity in female Balb/c nude mouse xenografted with human MDA-MB-231 cells assessed as change in mean corpuscular volume at 2 to 5 mg/kg, iv administered via tail vein every 2 days for 16 days; format: organism-based; conditions: in vivo, 384 h, dose 2-5 mg/kg, time 16 day
Quadruplex DNA [14] = experiment: Binding affinity to hTERT G4 DNA assessed as dissociation constant by ITC analysis; format: nucleic-acid assay, Homo sapiens
Homo sapiens = species on record: Homo sapiens; experiment: Binding affinity to antisense i-hTERT DNA assessed as change in enthalpy at 400 uM by ITC analysis
[15] = Upregulation of HLA-B gene expression in human MDA-MB-231 cells assessed as fold change at 1 uM measured after 48 hrs by RNA-seq analysis relative to control; format: functional
[16] = Upregulation of SKP2 gene expression in human MDA-MB-231 cells assessed as fold change at 1 uM measured after 48 hrs by RNA-seq analysis relative to control; format: functional
MDA-MB-231 [17] = experiment: Downregulation of ND6 gene expression in human MDA-MB-231 cells at 1 uM measured after 48 hrs by RNA-seq analysis; format: functional, cell-based
DNA [18] = experiment: Binding affinity to DNA in telomerase-positive live human MDA-MB-231 cells assessed as reduction in fluorescence at 5 uM preincubated for 10 mins followed by washout and DNase I addition measured after 2 hrs by Hoechst 33342 staining based confocal microscopic analysis; format: cell-based
[19] = Toxicity in female Balb/c nude mouse xenografted with human MDA-MB-231 cells assessed as change in hemoglobin concentration at 2 to 5 mg/kg, iv administered via tail vein every 2 days for 16 days; format: organism-based; conditions: in vivo, 384 h, dose 2-5 mg/kg, time 16 day
HeLa = experiment: Cytotoxicity against telomerase-positive human HeLa cells assessed as inhibition of cell growth incubated for 48 hrs by MTT assay; format: functional, cell-based
MDA-MB-231 [20] = experiment: Downregulation of ND4 gene expression in human MDA-MB-231 cells at 1 uM measured after 48 hrs by RNA-seq analysis; format: functional, cell-based
[21] = Upregulation of S1PR1 gene expression in human MDA-MB-231 cells assessed as fold change at 1 uM measured after 48 hrs by RNA-seq analysis relative to control; format: functional
Quadruplex DNA [22] = experiment: Binding affinity to c-MYC Pu27 G4 DNA (unknown origin) assessed as dissociation constant by ITC analysis; format: nucleic-acid assay
Quadruplex DNA [23] = experiment: Binding affinity to Bcl-2 G4 DNA (unknown origin) assessed as dissociation constant by ITC analysis; format: nucleic-acid assay
MDA-MB-231 [24] = experiment: Downregulation of ND5 gene expression in human MDA-MB-231 cells at 1 uM measured after 48 hrs by RNA-seq analysis; format: functional, cell-based
[25] = Toxicity in female Balb/c nude mouse xenografted with human MDA-MB-231 cells assessed as change in mean corpuscular hemoglobin concentration at 2 to 5 mg/kg, iv administered via tail vein every 2 days for 16 days; format: organism-based; conditions: in vivo, 384 h, dose 2-5 mg/kg, time 16 day
[26] = Selectivity ratio of binding affinity to human TERT G4 DNA to binding affinity to Telo21 G4 DNA (unknown origin)
Quadruplex DNA [27] = experiment: Binding affinity to hTERT G4 DNA assessed as change in gibbs free energy at 400 uM by ITC analysis; format: nucleic-acid assay; conditions: Homo sapiens
[28] = Upregulation of MAPK13 gene expression in human MDA-MB-231 cells assessed as fold change at 1 uM measured after 48 hrs by RNA-seq analysis relative to control; format: functional
[29] = Upregulation of NFATC4 gene expression in human MDA-MB-231 cells assessed as fold change at 1 uM measured after 48 hrs by RNA-seq analysis relative to control; format: functional
[30] = Upregulation of CCNB1 gene expression in human MDA-MB-231 cells assessed as fold change at 1 uM measured after 48 hrs by RNA-seq analysis relative to control; format: functional
MDA-MB-231 [31] = experiment: Downregulation of c-MYC mRNA expression in human MDA-MB-231 cells at 0 to 1.5 uM measured after 48 hrs by qRT-PCR analysis; format: functional, cell-based; conditions: dose 0-1.5 µM
MDA-MB-231 [32] = experiment: Cytotoxicity against human MDA-MB-231 cells assessed as inhibition of cell growth incubated for 48 hrs in presence of TBHP by MTT assay; format: functional, cell-based; conditions: MDA-MB-231, 48 h
MDA-MB-231 [33] = experiment: Upregulation of glycolysis metabolic pathway in human MDA-MB-231 cells assessed as fold increase at 1.5 uM measured after 2 hrs by Seahorse XF24 analyzer relative to control; format: functional
[34] = Upregulation of TGFBR2 gene expression in human MDA-MB-231 cells assessed as fold change at 1 uM measured after 48 hrs by RNA-seq analysis relative to control; format: functional
MDA-MB-231 [35] = experiment: Induction of autophagy in human MDA-MB-231 cells assessed as upregulation of BNIP3L/Nix protein expression at 0 to 1.5 uM measured after 48 hrs by Western blot analysis; format: functional, cell-based; conditions: dose 0-1.5 µM
MDA-MB-231 [36] = experiment: Induction of oxidative stress in human MDA-MB-231 cells assessed as cellular DNA fragmentation at 0 to 1.5 uM measured after 48 hrs by comet assay; format: functional, cell-based; conditions: dose 0-1.5 µM

Selectivity ratio [3]: 2
ΔTm (DNA [7]): -2.51 °C
Kd (Quadruplex DNA [14]): 1140 nM
deltaH (Homo sapiens): -1.2 kcal/mol
Kd (Quadruplex DNA [22]): 14700 nM
Kd (Quadruplex DNA [23]): 3610 nM
Selectivity ratio [26]: 2
deltaG (Quadruplex DNA [27]): -8.11 kcal/mol
SMILES: C[n+]1c(/C=C/c2c[nH]c3ccccc23)cc(/C=C2\Sc3ccccc3N2CCCN2CCC(C(F)(F)F)CC2)c2ccccc21.[I-]
fold change (FC) [1]: >2
Activity (MDA-MB-231 [2]): 78.5%
Activity (MDA-MB-231 [4]): Active
fold change (FC) [5]: >2
fold change (FC) [6]: >2
Activity (MDA-MB-231 [8]): Dose-Dependent Effect
fold change (FC) [9]: >2
fold change (FC) [10]: >2
inhibition (MDA-MB-231 [11]): Dose-Dependent Effect
Activity [12]: Non-Toxic
Activity [13]: Non-Toxic
fold change (FC) [15]: >2
fold change (FC) [16]: >2
Activity (MDA-MB-231 [17]): Active
Activity (DNA [18]): Active
Activity [19]: Non-Toxic
IC50 (HeLa): 2600 nM
Activity (MDA-MB-231 [20]): Active
fold change (FC) [21]: >2
Activity (MDA-MB-231 [24]): Active
Activity [25]: Non-Toxic
fold change (FC) [28]: >2
fold change (FC) [29]: >2
fold change (FC) [30]: >2
Activity (MDA-MB-231 [31]): inactive
IC50 (MDA-MB-231 [32]): 670 nM
fold change (FC) (MDA-MB-231 [33]): >0.8
fold change (FC) [34]: >2
Activity (MDA-MB-231 [35]): Active
Activity (MDA-MB-231 [36]): Active
